The values that follow come from patent publication US10570129B2 (Zoetis Services LLC, priority 2015, dated 2020).

The structures appear in SMILES notation. A value given as a limit tells only on which side of the number the result lay.

Assay [1] concerns Haemonchus contortus L3. The assay is described as follows: microbe, parasite or virus in culture. The format is cell-based. The note with it: Haemonchus contortus, 96 h, read-out: HcL3 Minimal Effective Concentration (MEC).
Assay [2] relates to D. immitis microfilariae. As to the kind of experiment: Dirofilaria immitis, microfilariae (DiMF) in vitro motility assay. Type of assay: cell-based. The note with it: Dirofilaria immitis, 72 h, read-out: DiMF minimally effective dose (MEC).

On to `O=C(NCc1ccnc(Cl)c1)n1c2c(c3cc(C(F)(F)F)ccc31)CN(C/C=C/c1ccc(F)cc1)CC2` [Example 334, (E)-N-((2-chloropyridin-4-yl)methyl)-2-(3-(4-fluorophenyl)allyl)-8-(trifluoromethyl)-1,2,3,4-tetrahydro-5H-pyrido[4,3-b]indole-5-carboxamide], for which the values for the minimal effective concentration in assay [1] and in assay [2] were 1 µM and 10 µM, respectively.
`CSc1cc2c3c(n(C(=O)NCc4ccnc(Cl)c4)c2cc1C#N)CCN(C/C=C/c1ccc(Cl)cc1)C3` [Example 491, (E)-2-(3-(4-chlorophenyl)allyl)-N-((2-chloropyridin-4-yl)methyl)-7-cyano-8-(methylthio)-1,2,3,4-tetrahydro-5H-pyrido[4,3-b]indole-5-carboxamide]: the minimal effective concentration in assay [1] came to 1 µM; in assay [2] it was 18.2 µM.
As for `N#Cc1ccc2c(c1)c1c(n2C(=O)NCc2ccnc(F)c2)CCN(C/C=C/c2ccc(F)c(C#N)c2)C1` [Example 113, (E)-8-cyano-2-(3-(3-cyano-4-fluorophenyl)allyl)-N-((2-fluoropyridin-4-yl)methyl)-1,2,3,4-tetrahydro-5H-pyrido[4,3-b]indole-5-carboxamide], the values for the minimal effective concentration in assay [1] and in assay [2] were 1.3 µM and over 100 µM, respectively.
The like results for `N#Cc1ccc2c(c1)c1c(n2C(=O)NCc2ccnc(Cl)c2)CCN(C/C=C/c2cc(F)cc(F)c2)C1` [Example 90, (E)-N-((2-chloropyridin-4-yl)methyl)-8-cyano-2-(3-(3,5-difluorophenyl)allyl)-1,2,3,4-tetrahydro-5H-pyrido[4,3-b]indole-5-carboxamide] were, in that order, 0.1 µM and 3.3 µM.
The like results for `O=C(NCc1ccnc(F)c1)n1c2c(c3cc(Cl)ccc31)CN(C/C=C/c1ccc(Cl)c(Cl)c1)CC2` [Example 261, (E)-8-chloro-2-(3-(3,4-dichlorophenyl)allyl)-N-((2-fluoropyridin-4-yl)methyl)-1,2,3,4-tetrahydro-5H-pyrido[4,3-b]indole-5-carboxamide] were, in that order, 1 µM and 10 µM.
As to `O=C(NCc1ccnc(Cl)c1)n1c2c(c3cc(Cl)c(Cl)cc31)CN(C/C=C/c1ccc(OC(F)(F)F)cc1)CC2` [Example 284, (E)-7,8-dichloro-N-((2-chloropyridin-4-yl)methyl)-2-(3-(4-(trifluoro-methoxy)phenyl)allyl)-1,2,3,4-tetrahydro-5H-pyrido[4,3-b]indole-5-carboxamide], the minimal effective concentration in assay [1] was over 100 µM; in assay [2] it was 10 µM.
In the same order, the values of `N#Cc1ccc2c(c1)c1c(n2C(=O)NCc2ccnc(Cl)c2)CCN(C/C=C/c2ccc(Br)cc2F)C1` [Example 73, (E)-2-(3-(4-bromo-2-fluorophenyl)allyl)-N-((2-chloropyridin-4-yl)methyl)-8-cyano-1,2,3,4-tetrahydro-5H-pyrido[4,3-b]indole-5-carboxamide] are 0.1 µM and over 100 µM.
In the same order, the values of `O=C(NCc1ccnc(Cl)c1)n1c2c(c3cc(OC(F)(F)F)ccc31)CN(C/C=C/c1ccc(Cl)c(F)c1)CC2` [Example 384, (E)-2-(3-(4-chloro-3-fluorophenyl)allyl)-N-((2-chloropyridin-4-yl)methyl)-8-(trifluoromethoxy)-1,2,3,4-tetrahydro-5H-pyrido[4,3-b]indole-5-carboxamide] are 1 µM and 18.2 µM.
The like results for `COc1ccc(/C=C/CN2CCc3c(c4cc(Cl)c(Cl)cc4n3C(=O)NCc3ccnc(Cl)c3)C2)cc1` [Example 283, (E)-7,8-dichloro-N-((2-chloropyridin-4-yl)methyl)-2-(3-(4-methoxyphenyl)allyl)-1,2,3,4-tetrahydro-5H-pyrido[4,3-b]indole-5-carboxamide] were, in that order, 0.5 µM and 3.3 µM.
As to `N#Cc1ccc2c(c1)c1c(n2C(=O)NCc2ccnc(Cl)c2)CCN(C/C=C/c2ccc(Cl)c(F)c2F)C1` [Example 82, (E)-2-(3-(4-chloro-2,3-difluorophenyl)allyl)-N-((2-chloropyridin-4-yl)methyl)-8-cyano-1,2,3,4-tetrahydro-5H-pyrido[4,3-b]indole-5-carboxamide], the minimal effective concentration is 0.2 µM in assay [1] and over 100 µM in assay [2].
Turning to `CS(=O)(=O)c1ccc2c(c1)c1c(n2C(=O)NCc2ccnc(Cl)c2)CCN(C/C=C/c2ccc(F)cc2F)C1` [Example 456, (E)-N-((2-chloropyridin-4-yl)methyl)-2-(3-(2,4-difluorophenyl)allyl)-8-(methylsulfonyl)-1,2,3,4-tetrahydro-5H-pyrido[4,3-b]indole-5-carboxamide], the minimal effective concentration was found to be 1.3 µM in assay [1] and 10 µM in assay [2].
The like results for `O=C(NCc1ccnc(Cl)c1)n1c2c(c3ccc(Br)cc31)CN(C/C=C/c1ccc(F)c(Cl)c1)CC2` [Example 439, (E)-7-bromo-2-(3-(3-chloro-4-fluorophenyl)allyl)-N-((2-chloropyridin-4-yl)methyl)-1,2,3,4-tetrahydro-5H-pyrido[4,3-b]indole-5-carboxamide] were, in that order, 1.8 µM and 18.2 µM.
In the same order, the values of `Cc1ccc2c(c1)c1c(n2C(=O)NCc2ccnc(Cl)c2)CCN(C/C=C/c2ccc(C#N)cc2)C1` [Example 430, (E)-N-((2-chloropyridin-4-yl)methyl)-2-(3-(4-cyanophenyl)allyl)-8-methyl-1,2,3,4-tetrahydro-5H-pyrido[4,3-b]indole-5-carboxamide] are 1 µM and over 100 µM.
In the same order, the values of `N#Cc1ccc2c3c(n(C(=O)NCc4ccnc(Cl)c4)c2c1)CCN(C/C=C/c1ccc(Br)c(F)c1)C3` [Example 8, (E)-2-(3-(4-bromo-3-fluorophenyl)allyl)-N-((2-chloropyridin-4-yl)methyl)-7-cyano-1,2,3,4-tetrahydro-5H-pyrido[4,3-b]indole-5-carboxamide] are 0.5 µM and 18.2 µM.
With `N#Cc1ccc(/C=C/CN2CCc3c(c4cc(Cl)c(Cl)cc4n3C(=O)NCc3ccnc(Cl)c3)C2)cc1F` [Example 275, (E)-7,8-dichloro-N-((2-chloropyridin-4-yl)methyl)-2-(3-(4-cyano-3-fluorophenyl)allyl)-1,2,3,4-tetrahydro-5H-pyrido[4,3-b]indole-5-carboxamide], the minimal effective concentration in assay [1] is 0.3 µM; in assay [2], over 100 µM.
The like results for `O=C(NCc1ccnc(Cl)c1)n1c2c(c3ccc(C(F)(F)F)cc31)CN(C/C=C/c1ccc(Cl)c(Cl)c1)CC2` [Example 158, (E)-N-((2-chloropyridin-4-yl)methyl)-2-(3-(3,4-dichlorophenyl)allyl)-7-(trifluoromethyl)-1,2,3,4-tetrahydro-5H-pyrido[4,3-b]indole-5-carboxamide] were, in that order, 2.2 µM and 16.8 µM.
As to `O=C(NCc1ccnc(Cl)c1)n1c2c(c3cc(C(F)(F)F)ccc31)CN(C/C=C/c1ccc(F)c(F)c1)CC2` [Example 414, (E)-N-((2-chloropyridin-4-yl)methyl)-2-(3-(3,4-difluorophenyl)allyl)-8-(trifluoromethyl)-1,2,3,4-tetrahydro-5H-pyrido[4,3-b]indole-5-carboxamide], the minimal effective concentration was found to be 1 µM in assay [1] and 10 µM in assay [2].
Turning to `O=C(NCc1ccnc(Cl)c1)n1c2c(c3cc(Br)c(OC(F)(F)F)cc31)CN(C/C=C/c1ccc(Cl)cc1)CC2` [Example 492, (E)-8-bromo-2-(3-(4-chlorophenyl)allyl)-N-((2-chloropyridin-4-yl)methyl)-7-(trifluoromethoxy)-1,2,3,4-tetrahydro-5H-pyrido[4,3-b]indole-5-carboxamide], the results for the minimal effective concentration in assay [1] and in assay [2] were 1.8 µM and 0.5 µM, respectively.
Take `O=C(NCc1ccnc(Cl)c1)n1c2c(c3ccc(Cl)cc31)CN(C/C=C/c1ccc(C(F)(F)F)cc1)CC2` [Example 223, (E)-7-chloro-N-((2-chloropyridin-4-yl)methyl)-2-(3-(4-(trifluoromethyl)-phenyl)allyl)-1,2,3,4-tetrahydro-5H-pyrido[4,3-b]indole-5-carboxamide]: the minimal effective concentration is 10 µM in assay [1] and 3.3 µM in assay [2].
For `O=C(NCc1ccnc(F)c1)n1c2c(c3ccc(OC(F)(F)F)cc31)CN(C/C=C/c1cc(F)cc(F)c1)CC2` [Example 378, (E)-2-(3-(3,5-difluorophenyl)allyl)-N-((2-fluoropyridin-4-yl)methyl)-7-(trifluoromethoxy)-1,2,3,4-tetrahydro-5H-pyrido[4,3-b]indole-5-carboxamide], the minimal effective concentration was determined as 1.8 µM in assay [1] and 10 µM in assay [2].
As to `N#Cc1cc2c(cc1Cl)c1c(n2C(=O)NCc2ccnc(Cl)c2)CCN(C/C=C/c2ccc(Cl)cc2)C1` [Example 296, (E)-8-chloro-2-(3-(4-chlorophenyl)allyl)-N-((2-chloropyridin-4-yl)methyl)-7-cyano-1,2,3,4-tetrahydro-5H-pyrido[4,3-b]indole-5-carboxamide], the figures for the minimal effective concentration in assay [1] and in assay [2] were 1 µM and over 100 µM, respectively.
In the case of `O=C(NCc1ccnc(F)c1)n1c2c(c3cc(OC(F)(F)F)ccc31)CN(C/C=C/c1ccc(F)c(Cl)c1)CC2` [Example 404, (E)-2-(3-(3-chloro-4-fluorophenyl)allyl)-N-((2-fluoropyridin-4-yl)methyl)-8-(trifluoromethoxy)-1,2,3,4-tetrahydro-5H-pyrido[4,3-b]indole-5-carboxamide], the minimal effective concentration in assay [1] stood at 1 µM; in assay [2], 18.2 µM.
In the same order, the values of `O=C(NCc1ccnc(F)c1)n1c2c(c3ccc(OC(F)(F)F)cc31)CN(C/C=C/c1ccc(Cl)cc1Cl)CC2` [Example 370, (E)-2-(3-(2,4-dichlorophenyl)allyl)-N-((2-fluoropyridin-4-yl)methyl)-7-(trifluoromethoxy)-1,2,3,4-tetrahydro-5H-pyrido[4,3-b]indole-5-carboxamide] are 3.3 µM and 33 µM.
